System: 188146-221-R-J1-PDC complex spheroid viability
Assay: Anticancer human tumor 188146-221-R-J1-PDC patient-derived colon adenocarcinoma cell line growth inhibition [POLQ]
Conditions: for IC50: curve of first compound; for viability, T/C: stronger effect = lower value
Procedure, shortened: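 PDC + HUVEC + MSC complex spheroids; POLQ inhibitors ± partner drugs; top conc. at/near clinical Cmax, else 10 microM (SN-38 1 microM), half-log dilutions; 37 degrees C, 5% CO2.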

[1] = second compound 0.0316 µM, first compound 0.0316 µM
[2] = second compound 0.0316 µM, first compound 0.1 µM
[3] = second compound 0.0316 µM, first compound 0.316 µM
[4] = second compound 0.0316 µM, first compound 1 µM
[5] = second compound 0.0316 µM, first compound 3.16 µM
[6] = second compound 0.0316 µM, first compound 10 µM
[7] = second compound 0.1 µM, first compound 0.0316 µM
[8] = second compound 0.1 µM, first compound 0.1 µM
[9] = second compound 0.1 µM, first compound 0.316 µM
[10] = second compound 0.1 µM, first compound 1 µM
[11] = second compound 0.1 µM, first compound 3.16 µM
[12] = second compound 0.1 µM, first compound 10 µM
[13] = second compound 0.316 µM, first compound 0.0316 µM
[14] = second compound 0.316 µM, first compound 0.1 µM
[15] = second compound 0.316 µM, first compound 0.316 µM
[16] = second compound 0.316 µM, first compound 1 µM
[17] = second compound 0.316 µM, first compound 3.16 µM
[18] = second compound 0.316 µM, first compound 10 µM
[19] = second compound 1 µM, first compound 0.0316 µM
[20] = second compound 1 µM, first compound 0.1 µM
[21] = second compound 1 µM, first compound 0.316 µM
[22] = second compound 1 µM, first compound 1 µM
[23] = second compound 1 µM, first compound 3.16 µM
[24] = second compound 1 µM, first compound 10 µM
[25] = second compound 3.16 µM, first compound 0.0316 µM
[26] = second compound 3.16 µM, first compound 0.1 µM
[27] = second compound 3.16 µM, first compound 0.316 µM
[28] = second compound 3.16 µM, first compound 1 µM
[29] = second compound 3.16 µM, first compound 3.16 µM
[30] = second compound 3.16 µM, first compound 10 µM
[31] = second compound 10 µM, first compound 0.0316 µM
[32] = second compound 10 µM, first compound 0.1 µM
[33] = second compound 10 µM, first compound 0.316 µM
[34] = second compound 10 µM, first compound 1 µM
[35] = second compound 10 µM, first compound 3.16 µM
[36] = second compound 10 µM, first compound 10 µM
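Note: spheroids exposed to compounds for seven days.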
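Throughout, for viability, T/C: 100% = DMSO vehicle control viability.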

SMILES: CC1COCCN1c1cc(-c2ccnn2C)c2ccnc(-c3ccn[nH]3)c2n1 (stereo not drawn) + Cc1cccc(N(C)C(=O)C2C(O)CCN2c2nc(C)cc(C(F)(F)F)c2C#N)c1
- IC50 (second compound 0.0316 µM): 0.203 µM
- IC50 (second compound 0.1 µM): 0.228 µM
- IC50 (second compound 0.316 µM): 0.248 µM
- IC50 (second compound 1 µM): 0.336 µM
- IC50 (second compound 3.16 µM): 0.232 µM
- IC50 (second compound 10 µM): 0.165 µM
- viability, T/C [1]: 86.4%
- viability, T/C [2]: 63.6%
- viability, T/C [3]: 43.3%
- viability, T/C [4]: 21.8%
- viability, T/C [5]: 21.6%
- viability, T/C [6]: 17.8%
- viability, T/C [7]: 87.6%
- viability, T/C [8]: 72.7%
- viability, T/C [9]: 39.3%
- viability, T/C [10]: 26.5%
- viability, T/C [11]: 17%
- viability, T/C [12]: 15.7%
- viability, T/C [13]: 92.9%
- viability, T/C [14]: 79.8%
- viability, T/C [15]: 40%
- viability, T/C [16]: 26.5%
- viability, T/C [17]: 18.8%
- viability, T/C [18]: 13.8%
- viability, T/C [19]: 75.8%
- viability, T/C [20]: 73.9%
- viability, T/C [21]: 50.3%
- viability, T/C [22]: 26.4%
- viability, T/C [23]: 17.5%
- viability, T/C [24]: 15.8%
- viability, T/C [25]: 74.9%
- viability, T/C [26]: 67.6%
- viability, T/C [27]: 44%
- viability, T/C [28]: 20%
- viability, T/C [29]: 23.3%
- viability, T/C [30]: 16.6%
- viability, T/C [31]: 67.9%
- viability, T/C [32]: 51.5%
- viability, T/C [33]: 47.8%
- viability, T/C [34]: 25.1%
- viability, T/C [35]: 21.3%
- viability, T/C [36]: 20.2%

SMILES: CC1COCCN1c1cc(C2(S(C)(=N)=O)CC2)nc(-c2ccnc3[nH]ccc23)n1 (stereo not drawn) + Cc1cccc(N(C)C(=O)C2C(O)CCN2c2nc(C)cc(C(F)(F)F)c2C#N)c1
- IC50 (second compound 0.0316 µM): 4.9 µM
- IC50 (second compound 0.1 µM): 4.65 µM
- IC50 (second compound 0.316 µM): 5.33 µM
- IC50 (second compound 1 µM): 4.36 µM
- IC50 (second compound 3.16 µM): 4.9 µM
- IC50 (second compound 10 µM): 3.21 µM
- viability, T/C [1]: 108%
- viability, T/C [2]: 92.9%
- viability, T/C [3]: 97.6%
- viability, T/C [4]: 95.7%
- viability, T/C [5]: 65.2%
- viability, T/C [6]: 25.1%
- viability, T/C [7]: 114%
- viability, T/C [8]: 98.3%
- viability, T/C [9]: 93.9%
- viability, T/C [10]: 89.1%
- viability, T/C [11]: 58.7%
- viability, T/C [12]: 27.7%
- viability, T/C [13]: 98.4%
- viability, T/C [14]: 96.9%
- viability, T/C [15]: 97.9%
- viability, T/C [16]: 90.2%
- viability, T/C [17]: 68.5%
- viability, T/C [18]: 27.8%
- viability, T/C [19]: 101%
- viability, T/C [20]: 91%
- viability, T/C [21]: 95.7%
- viability, T/C [22]: 91.4%
- viability, T/C [23]: 58.2%
- viability, T/C [24]: 28.9%
- viability, T/C [25]: 88.5%
- viability, T/C [26]: 103%
- viability, T/C [27]: 81.4%
- viability, T/C [28]: 83.8%
- viability, T/C [29]: 63.8%
- viability, T/C [30]: 27.2%
- viability, T/C [31]: 90%
- viability, T/C [32]: 78.5%
- viability, T/C [33]: 88.8%
- viability, T/C [34]: 62%
- viability, T/C [35]: 53.2%
- viability, T/C [36]: 19.4%

SMILES: CCCS(=O)(=O)Nc1ccc(F)c(C(=O)c2c[nH]c3ncc(-c4ccc(Cl)cc4)cc23)c1F + Cc1cccc(N(C)C(=O)C2C(O)CCN2c2nc(C)cc(C(F)(F)F)c2C#N)c1
- IC50 (second compound 0.0316 µM): 9.75 µM
- IC50 (second compound 0.1 µM): 6.82 µM
- IC50 (second compound 0.316 µM): 6.53 µM
- IC50 (second compound 1 µM): 6.44 µM
- IC50 (second compound 3.16 µM): 7.14 µM
- IC50 (second compound 10 µM): 5.88 µM
- viability, T/C [1]: 117%
- viability, T/C [2]: 96.5%
- viability, T/C [3]: 102%
- viability, T/C [4]: 87.1%
- viability, T/C [5]: 78.8%
- viability, T/C [6]: 47.3%
- viability, T/C [7]: 113%
- viability, T/C [8]: 97.3%
- viability, T/C [9]: 106%
- viability, T/C [10]: 91%
- viability, T/C [11]: 85.8%
- viability, T/C [12]: 33.4%
- viability, T/C [13]: 116%
- viability, T/C [14]: 112%
- viability, T/C [15]: 99.2%
- viability, T/C [16]: 88.3%
- viability, T/C [17]: 90.9%
- viability, T/C [18]: 29.2%
- viability, T/C [19]: 93.4%
- viability, T/C [20]: 98.1%
- viability, T/C [21]: 101%
- viability, T/C [22]: 90.6%
- viability, T/C [23]: 81.5%
- viability, T/C [24]: 30.7%
- viability, T/C [25]: 107%
- viability, T/C [26]: 104%
- viability, T/C [27]: 104%
- viability, T/C [28]: 77.4%
- viability, T/C [29]: 96.4%
- viability, T/C [30]: 31%
- viability, T/C [31]: 106%
- viability, T/C [32]: 97.7%
- viability, T/C [33]: 105%
- viability, T/C [34]: 85.1%
- viability, T/C [35]: 92.6%
- viability, T/C [36]: 13.4%

SMILES: Cn1ncnc1[C@H]1c2n[nH]c(=O)c3cc(F)cc(c23)N[C@@H]1c1ccc(F)cc1 + Cc1cccc(N(C)C(=O)C2C(O)CCN2c2nc(C)cc(C(F)(F)F)c2C#N)c1
- IC50 (second compound 0.0316 µM): > 0.1 µM
- IC50 (second compound 0.1 µM): > 0.1 µM
- IC50 (second compound 0.316 µM): > 0.1 µM
- IC50 (second compound 1 µM): > 0.1 µM
- IC50 (second compound 3.16 µM): > 0.1 µM
- IC50 (second compound 10 µM): > 0.1 µM
- viability, T/C (second compound 0.0316 µM, first compound 0.000316 µM): 97.2%
- viability, T/C (second compound 0.0316 µM, first compound 0.001 µM): 97.4%
- viability, T/C (second compound 0.0316 µM, first compound 0.00316 µM): 91.8%
- viability, T/C (second compound 0.0316 µM, first compound 0.01 µM): 98.3%
- viability, T/C [1]: 99.3%
- viability, T/C [2]: 88%
- viability, T/C (second compound 0.1 µM, first compound 0.000316 µM): 106%
- viability, T/C (second compound 0.1 µM, first compound 0.001 µM): 107%
- viability, T/C (second compound 0.1 µM, first compound 0.00316 µM): 101%
- viability, T/C (second compound 0.1 µM, first compound 0.01 µM): 84.8%
- viability, T/C [7]: 89.9%
- viability, T/C [8]: 103%
- viability, T/C (second compound 0.316 µM, first compound 0.000316 µM): 101%
- viability, T/C (second compound 0.316 µM, first compound 0.001 µM): 104%
- viability, T/C (second compound 0.316 µM, first compound 0.00316 µM): 101%
- viability, T/C (second compound 0.316 µM, first compound 0.01 µM): 101%
- viability, T/C [13]: 90.8%
- viability, T/C [14]: 104%
- viability, T/C (second compound 1 µM, first compound 0.000316 µM): 107%
- viability, T/C (second compound 1 µM, first compound 0.001 µM): 99.6%
- viability, T/C (second compound 1 µM, first compound 0.00316 µM): 105%
- viability, T/C (second compound 1 µM, first compound 0.01 µM): 102%
- viability, T/C [19]: 89%
- viability, T/C [20]: 93.5%
- viability, T/C (second compound 3.16 µM, first compound 0.000316 µM): 100%
- viability, T/C (second compound 3.16 µM, first compound 0.001 µM): 105%
- viability, T/C (second compound 3.16 µM, first compound 0.00316 µM): 95.4%
- viability, T/C (second compound 3.16 µM, first compound 0.01 µM): 90%
- viability, T/C [25]: 95.4%
- viability, T/C [26]: 94.2%
- viability, T/C (second compound 10 µM, first compound 0.000316 µM): 96.4%
- viability, T/C (second compound 10 µM, first compound 0.001 µM): 91.8%
- viability, T/C (second compound 10 µM, first compound 0.00316 µM): 90.6%
- viability, T/C (second compound 10 µM, first compound 0.01 µM): 87.8%
- viability, T/C [31]: 90.8%
- viability, T/C [32]: 94.6%

Source: PubChem BioAssay AID1963851 (Molecular Pharmacology Branch, DTP, NCI, 2024)
